Source: the METLIN SMRT retention time set (Domingo-Almenara et al. 2019)

Assay: gradient 5% acetonitrile 3 min, to 50% in 2 min, to 85% in 15 min, held 3 min, 100 µL/min
Conditions: column: Zorbax Extend-C18 2.1 x 50 mm; eluents: water / acetonitrile, 0.1% formic acid
Procedure, shortened: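 Retention times come from adduct peaks that were picked computationally and then checked by hand. The standards, pure and pooled in mixtures of ~100 molecules, were run on a Zorbax Extend-C18 column (2.1 × 50 mm, 1.8 μm) at 100 μL/min with water and acetonitrile, each with 0.1% formic acid. Detection was by quadrupole time-of-flight mass spectrometry in positive and negative ionization mode, with a dead volume of 40 μL and a dwell volume of 900 μL.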

Work on `Cc1ccc2c(c1)N(S(C)(=O)=O)CCC(C(=O)Nc1cccc(Cl)c1)O2` (stereo unspecified) yielded an RP-LC retention time of 1020 s.

In the case of `O=C(NCc1ccc(F)cc1)c1ccc(-c2cccs2)nc1`, the RP-LC retention time is reported as 869 s.

With `O=C(Nc1nc2ccccc2[nH]1)C1CCN(c2ccc(-c3cccs3)nn2)CC1` the RP-LC retention time was 591 s.

Compound `CC(NC(=O)CSc1nnc2c3ccccc3nc(-c3ccco3)n12)c1nc2ccccc2[nH]1` (stereo unspecified) has an RP-LC retention time of 638 s.

Work on `Cc1cc(N2CCCC2)nc(N2CCN(C(=O)c3ccc(Br)cc3)CC2)n1` yielded an RP-LC retention time of 713 s.

`CNC(=O)c1sc2nc(-c3ccc(OC)cc3)c(NC(C)(C)C)n2c1C` showed an RP-LC retention time of 737 s.

Work on `COc1ccc(OC)c(N2C=C(C#N)S(=O)(=O)c3ccc(F)cc32)c1` yielded an RP-LC retention time of 921 s.

`Cn1c(=O)n(C)c2cc(S(=O)(=O)c3ccc(F)cc3)c(NC(=O)c3ccc(F)cc3)cc21` showed an RP-LC retention time of 899 s.

In the case of `COc1cccc(CC(=O)N2CCCC2c2cc(C)on2)c1` (stereo unspecified), the RP-LC retention time is reported as 757 s.

`Cc1cc(Cl)ccc1NC(=O)c1cc2c(=O)n(CC(C)C)ccc2n1C` showed an RP-LC retention time of 900 s.

With `CCc1cccc(NS(=O)(=O)c2c[nH]c3ncccc23)c1` the RP-LC retention time was 762 s.

Compound `CCc1ccc(S(=O)(=O)N2CCc3nc(CNC(=O)C4CCC4)n(C)c3C2)cc1` has an RP-LC retention time of 652 s.

With `O=C(Cn1c(=O)c2nncn2c2ncccc21)NCc1cc(F)ccc1F` the RP-LC retention time was 654 s.

Compound `Cc1cc2c(cc1S(=O)(=O)N1CCCC1C(=O)Nc1ccc(F)cc1Cl)OC(C)C(=O)N2` (stereo unspecified) has an RP-LC retention time of 849 s.

For `Cc1ccc(-c2nnc(N3CCC(C(=O)N4CCN(CC(C)C)CC4)CC3)o2)cc1`, the RP-LC retention time was 639 s.

With `CCOc1ccc(S(=O)(=O)N(C)C2CCc3nn(CC4CC4)c(=O)n3CC2)cc1` (stereo unspecified) the RP-LC retention time was 804 s.

Work on `CN(CCNC(=O)C1CCCN(c2ncnc3c2nc2n3CCCCC2)C1)C1CCCCC1` (stereo unspecified) yielded an RP-LC retention time of 612 s.

Work on `CC(C)Cn1c(CCNC(=O)c2ccccc2F)nc2cccnc21` yielded an RP-LC retention time of 698 s.

Compound `COCCNC(=O)C1CCCN(C(=O)c2[nH]c(C)c(C(=O)OC)c2C)C1` (stereo unspecified) has an RP-LC retention time of 624 s.

In the case of `O=S(=O)(c1c(F)cccc1F)N1CCC2(CC1)OCCS2`, the RP-LC retention time is reported as 860 s.

`CC(=O)N1c2ccc(S(=O)(=O)N3CCCCC3)cc2CC1C(=O)NCCN1CCCC1` (stereo unspecified) showed an RP-LC retention time of 592 s.

Compound `CCCN(CCC)CCCNC(=O)C1CCCN(c2ncc(-c3ccccc3)cn2)C1` (stereo unspecified) has an RP-LC retention time of 719 s.

`Cc1cccc(NC(=O)C2CCN(S(=O)(=O)c3cn(C(C)C)cn3)CC2)c1` gave an RP-LC retention time of 781 s.

Compound `Cc1ccc(C(=O)N2CCN(c3nnc4cccc(C)n34)CC2)cc1` has an RP-LC retention time of 670 s.

With `CCOc1ccc(NC(=O)NCC(c2cccnc2)c2cn(CC)c3ccccc23)cc1` (stereo unspecified) the RP-LC retention time was 751 s.

`CCNC(=O)c1cc(N2CCCC2)nc2ccccc12` gave an RP-LC retention time of 841 s.

Work on `CN1CCCN(C(=O)C2CN(S(=O)(=O)c3cccnc3)CC23CCCCC3)CC1` (stereo unspecified) yielded an RP-LC retention time of 605 s.

Compound `CCc1nnc2c(=O)n(CC(=O)N3CCN(c4ccccc4)CC3)c3cccnc3n12` has an RP-LC retention time of 738 s.

In the case of `CC(C(=O)NCCCN1CCCC1=O)C1CCN(C(=O)c2cc3cc(Cl)ccc3[nH]2)CC1` (stereo unspecified), the RP-LC retention time is reported as 698 s.

With `CC(C)c1ccc(-c2noc(N3CCC(C(=O)N4CCOCC4)CC3)n2)cc1` the RP-LC retention time was 955 s.

Compound `Cc1cc2c(cc1S(=O)(=O)N1CCCC1C(=O)Nc1ccc(F)cc1F)OCC(=O)N2` (stereo unspecified) has an RP-LC retention time of 774 s.

Compound `Cc1ccc(C)c(NC(=O)Cn2c(=O)n(-c3ccc(F)cc3)c(=O)c3c2cc(C)n3C)c1` has an RP-LC retention time of 931 s.

Work on `COc1ccc(OC)c(NC(=O)N2CCC(n3c(C)nc4cccnc43)CC2)c1` yielded an RP-LC retention time of 631 s.

Compound `Cn1c(=O)n(CC(=O)N2CCCCCC2)c(=O)c2cnc(-c3ccc(Cl)cc3)nc21` has an RP-LC retention time of 1120 s.

`CCn1cnc(S(=O)(=O)N2CCCC(C(=O)NC3CCCCCC3)C2)c1` (stereo unspecified) gave an RP-LC retention time of 740 s.

With `COc1ccc(NC(=O)c2cn(-c3cc(N4CCCC(C)C4)ncn3)cn2)c(OC)c1` (stereo unspecified) the RP-LC retention time was 1170 s.
